Measurements as given in ChEMBL document CHEMBL2074262, “Molecular identification and characterization of novel members of the human organic anion transporter (OATP) family” (Biochem Biophys Res Commun, 2000).

Key:
Assay type in all cases: functional, cell-based
[1] = biological target: T1, Solute carrier organic anion transporter family member 2B1 (Homo sapiens, UniProt O94956); test: TP_TRANSPORTER: uptake in OATP-B-expressing HEK293 cells
T1 sequence (O94956 whole entry): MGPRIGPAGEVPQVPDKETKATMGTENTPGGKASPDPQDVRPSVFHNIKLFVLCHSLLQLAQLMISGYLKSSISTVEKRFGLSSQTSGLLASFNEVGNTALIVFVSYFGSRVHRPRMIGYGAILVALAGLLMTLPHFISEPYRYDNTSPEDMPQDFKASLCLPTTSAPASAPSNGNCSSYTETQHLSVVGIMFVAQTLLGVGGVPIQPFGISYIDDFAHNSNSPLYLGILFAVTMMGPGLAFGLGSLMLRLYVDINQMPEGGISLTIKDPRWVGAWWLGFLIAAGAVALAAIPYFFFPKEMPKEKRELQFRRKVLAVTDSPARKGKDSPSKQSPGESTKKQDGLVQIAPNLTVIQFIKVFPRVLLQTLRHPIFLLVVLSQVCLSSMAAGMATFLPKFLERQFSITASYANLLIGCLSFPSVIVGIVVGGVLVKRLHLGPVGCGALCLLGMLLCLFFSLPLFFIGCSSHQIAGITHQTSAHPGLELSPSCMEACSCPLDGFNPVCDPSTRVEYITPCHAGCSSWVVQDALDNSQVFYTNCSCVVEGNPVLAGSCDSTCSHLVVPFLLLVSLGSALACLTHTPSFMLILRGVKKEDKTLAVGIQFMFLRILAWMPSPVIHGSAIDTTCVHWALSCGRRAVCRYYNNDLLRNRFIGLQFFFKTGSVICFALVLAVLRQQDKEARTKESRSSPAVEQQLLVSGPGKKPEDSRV

[2] = biological target: T2, Solute carrier organic anion transporter family member 3A1 (Homo sapiens, UniProt Q9UIG8); test: TP_TRANSPORTER: uptake in OATP-D-expressing HEK293 cells
T2 sequence (Q9UIG8 whole entry): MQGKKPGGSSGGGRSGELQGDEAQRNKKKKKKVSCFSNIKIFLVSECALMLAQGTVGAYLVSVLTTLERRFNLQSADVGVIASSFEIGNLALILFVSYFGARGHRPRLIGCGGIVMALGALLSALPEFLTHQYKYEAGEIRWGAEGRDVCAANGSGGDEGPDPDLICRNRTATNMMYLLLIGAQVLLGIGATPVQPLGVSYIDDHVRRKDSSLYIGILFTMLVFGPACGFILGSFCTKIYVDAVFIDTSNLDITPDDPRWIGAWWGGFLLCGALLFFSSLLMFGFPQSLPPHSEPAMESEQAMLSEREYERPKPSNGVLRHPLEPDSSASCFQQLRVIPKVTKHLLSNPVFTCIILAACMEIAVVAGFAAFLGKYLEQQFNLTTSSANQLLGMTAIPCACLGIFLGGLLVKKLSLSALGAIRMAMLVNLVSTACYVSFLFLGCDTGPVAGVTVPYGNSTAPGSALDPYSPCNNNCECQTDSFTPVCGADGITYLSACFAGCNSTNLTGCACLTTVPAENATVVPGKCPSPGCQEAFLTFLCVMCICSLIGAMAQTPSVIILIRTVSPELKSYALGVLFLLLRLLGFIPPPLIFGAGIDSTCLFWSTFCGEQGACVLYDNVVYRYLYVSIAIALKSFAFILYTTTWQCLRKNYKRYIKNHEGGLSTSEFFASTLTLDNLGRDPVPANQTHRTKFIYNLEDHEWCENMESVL

[3] = biological target: T3, Solute carrier organic anion transporter family member 4A1 (Homo sapiens, UniProt Q96BD0); test: TP_TRANSPORTER: uptake in OATP-E-expressing HEK293 cells
T3 sequence (Q96BD0 whole entry): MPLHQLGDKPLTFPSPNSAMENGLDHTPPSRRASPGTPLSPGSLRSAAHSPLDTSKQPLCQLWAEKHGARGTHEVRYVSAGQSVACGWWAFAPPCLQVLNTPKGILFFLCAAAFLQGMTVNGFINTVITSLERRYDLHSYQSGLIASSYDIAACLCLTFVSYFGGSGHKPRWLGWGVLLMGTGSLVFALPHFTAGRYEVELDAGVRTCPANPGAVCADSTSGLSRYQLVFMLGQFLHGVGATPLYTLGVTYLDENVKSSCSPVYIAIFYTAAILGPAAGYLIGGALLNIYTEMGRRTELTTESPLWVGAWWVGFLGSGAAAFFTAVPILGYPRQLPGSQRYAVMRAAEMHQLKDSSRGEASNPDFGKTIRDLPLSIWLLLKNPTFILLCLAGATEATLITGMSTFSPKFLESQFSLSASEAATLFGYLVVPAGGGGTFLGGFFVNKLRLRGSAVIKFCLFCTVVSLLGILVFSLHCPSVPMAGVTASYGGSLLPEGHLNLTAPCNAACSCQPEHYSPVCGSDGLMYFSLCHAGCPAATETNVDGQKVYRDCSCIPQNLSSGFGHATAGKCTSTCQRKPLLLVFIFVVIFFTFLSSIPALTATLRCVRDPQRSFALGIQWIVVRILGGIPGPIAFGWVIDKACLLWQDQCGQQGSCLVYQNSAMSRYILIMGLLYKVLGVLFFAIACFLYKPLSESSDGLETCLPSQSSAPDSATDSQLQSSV

[4] = biological target: T4, Solute carrier organic anion transporter family member 1B1 (Homo sapiens, UniProt Q9Y6L6); test: TP_TRANSPORTER: uptake in OATP-C-expressing HEK293 cells
T4 sequence (Q9Y6L6 whole entry): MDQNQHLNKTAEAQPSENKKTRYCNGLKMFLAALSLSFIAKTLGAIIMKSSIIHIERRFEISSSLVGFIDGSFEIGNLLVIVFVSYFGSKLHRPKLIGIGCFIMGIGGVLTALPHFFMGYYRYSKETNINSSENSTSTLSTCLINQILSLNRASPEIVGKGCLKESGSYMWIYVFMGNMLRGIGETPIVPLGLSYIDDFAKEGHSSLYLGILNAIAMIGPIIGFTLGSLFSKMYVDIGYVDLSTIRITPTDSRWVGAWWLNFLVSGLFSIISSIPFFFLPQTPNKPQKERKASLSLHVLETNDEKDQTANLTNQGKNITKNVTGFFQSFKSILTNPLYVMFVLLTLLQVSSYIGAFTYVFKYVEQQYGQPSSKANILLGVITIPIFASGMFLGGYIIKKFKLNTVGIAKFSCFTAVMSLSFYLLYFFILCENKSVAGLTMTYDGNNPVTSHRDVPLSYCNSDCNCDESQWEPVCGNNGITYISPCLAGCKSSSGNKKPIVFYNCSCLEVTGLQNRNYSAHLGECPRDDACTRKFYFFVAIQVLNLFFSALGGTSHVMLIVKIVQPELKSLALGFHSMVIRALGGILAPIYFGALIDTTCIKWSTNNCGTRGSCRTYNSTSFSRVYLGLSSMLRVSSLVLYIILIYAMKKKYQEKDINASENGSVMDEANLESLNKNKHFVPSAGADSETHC

Activity [1]	Activity [2]	Activity [3]	Activity [4]	Structure (SMILES)
substrate [+]	substrate [+]	substrate [+]	substrate [+]	CCCCC[C@H](O)/C=C/[C@H]1[C@H](O)CC(=O)[C@@H]1C/C=C\CCCC(=O)O [DINOPROSTONE]
	substrate [+]	substrate [+]		C[C@]12CC[C@@H]3c4ccc(OS(=O)(=O)O)cc4CC[C@H]3[C@@H]1CCC2=O [ESTRONE SULFURIC ACID]
substrate [+]	substrate [+]	substrate [+]	substrate [+]	CC1(C)S[C@@H]2[C@H](NC(=O)Cc3ccccc3)C(=O)N2[C@H]1C(=O)O [PENICILLIN G]

Structure (SMILES)	Activity [1]	Activity [2]	Activity [3]	Activity [4]
C[C@]12CC[C@@H]3c4ccc(O)cc4CC[C@H]3[C@@H]1CC[C@@H]2O[C@@H]1O[C@H](C(=O)O)[C@@H](O)[C@H](O)[C@H]1O [ESTRADIOL 17B GLUCURONIDE]			substrate [+]	
